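Cultured in 96-well plates, cells were exposed to test compound for 48 hours across five concentrations. The concentration for 50% growth inhibition is given as GI50.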 Calls of active or inactive are those of the source. No stated cut-off is given here; in the data, active = GI50 up to about 1.1 µM and inactive = higher.
What was measured:
Experiment in all cases: NCI-60 cell line screen, 48 h
[1] = tested on: TK-10
[2] = tested on: NCI-H226
[3] = tested on: CAKI-1
[4] = tested on: CCRF-CEM
[5] = tested on: NCI-H23
[6] = tested on: HOP-18
[7] = tested on: DLD-1
[8] = tested on: MOLT-4
[9] = tested on: HCT-15
[10] = tested on: LOX IMVI
[11] = tested on: SN12C
[12] = tested on: RXF 631
[13] = tested on: OVCAR-5
[14] = tested on: HT-29
[15] = tested on: SF-268
[16] = tested on: LXFL 529
[17] = tested on: HL-60
[18] = tested on: SF-539
[19] = tested on: HCT-116
[20] = tested on: HOP-62
[21] = tested on: A549
[22] = tested on: SNB-19
[23] = tested on: SNB-78
[24] = tested on: Malme-3M
[25] = tested on: U-251
[26] = tested on: SK-OV-3
[27] = tested on: EKVX
[28] = tested on: OVCAR-8
[29] = tested on: SW-620
[30] = tested on: UACC-257
[31] = tested on: M14
[32] = tested on: SF-295
[33] = tested on: NCI-H522
[34] = tested on: OVCAR-3
[35] = tested on: OVCAR-4
[36] = tested on: DMS-273
[37] = tested on: UACC-62
[38] = tested on: SR
[39] = tested on: SNB-75
[40] = tested on: RXF 393
[41] = tested on: K562
[42] = tested on: SK-MEL-2
[43] = tested on: NCI-H460
[44] = tested on: ACHN
[45] = tested on: IGROV-1
[46] = tested on: SK-MEL-5
[47] = tested on: KM-20L2
[48] = tested on: RPMI-8226
[49] = tested on: UO-31
[50] = tested on: DMS-114
[51] = tested on: SK-MEL-28
[52] = tested on: HCC 2998
[53] = tested on: COLO 205
[54] = tested on: KM12
[55] = tested on: HOP-92
[56] = tested on: 786-0
[57] = tested on: M19-MEL

Question: For CCOC(=O)C1CCn2c(nc3c(=O)n(C)c(=O)n(C)c32)S1 (stereo not drawn), which GI50 [1] is on record?
Answer: The GI50 was > 100 µM (inactive).

Question: What about the GI50 [2] of the same molecule?
Answer: The GI50 was > 100 µM (inactive).

Question: What about the GI50 [3] of the same molecule?
Answer: Its GI50 is > 100 µM (inactive).

Question: And the GI50 [4]?
Answer: Its GI50 is > 100 µM (inactive).

Question: And the GI50 [5]?
Answer: The GI50 was > 100 µM (inactive).

Question: What about the GI50 [6] of the same molecule?
Answer: The GI50 was > 100 µM (inactive).

Question: And the GI50 [7]?
Answer: The GI50 was > 100 µM (inactive).

Question: And the GI50 [8]?
Answer: Its GI50 is > 100 µM (inactive).

Question: What about the GI50 [9] of the same molecule?
Answer: The GI50 was greater than 100 µM.

Question: What about the GI50 [10] of the same molecule?
Answer: The GI50 was > 100 µM (inactive).

Question: What about the GI50 [11] of the same molecule?
Answer: Its GI50 is > 100 µM (inactive).

Question: And the GI50 [12]?
Answer: Its GI50 is > 100 µM (inactive).

Question: And the GI50 [13]?
Answer: Its GI50 is > 100 µM (inactive).

Question: And the GI50 [14]?
Answer: The GI50 was > 100 µM (inactive).

Question: And the GI50 [15]?
Answer: The GI50 was > 100 µM (inactive).

Question: And the GI50 [16]?
Answer: Its GI50 is > 100 µM (inactive).

Question: What about the GI50 [17] of the same molecule?
Answer: Its GI50 is > 100 µM (inactive).

Question: What about the GI50 [18] of the same molecule?
Answer: The GI50 was > 100 µM (inactive).

Question: And the GI50 [19]?
Answer: The GI50 was > 100 µM (inactive).

Question: And the GI50 [20]?
Answer: Its GI50 is > 100 µM (inactive).

Question: What about the GI50 [21] of the same molecule?
Answer: The GI50 was > 100 µM (inactive).

Question: What about the GI50 [22] of the same molecule?
Answer: The GI50 was > 100 µM (inactive).

Question: And the GI50 [23]?
Answer: Its GI50 is > 100 µM (inactive).

Question: What about the GI50 [24] of the same molecule?
Answer: The GI50 was > 100 µM (inactive).

Question: What about the GI50 [25] of the same molecule?
Answer: Its GI50 is > 100 µM (inactive).

Question: And the GI50 [26]?
Answer: Its GI50 is > 100 µM (inactive).

Question: And the GI50 [27]?
Answer: Its GI50 is > 100 µM (inactive).

Question: What about the GI50 [28] of the same molecule?
Answer: The GI50 was > 100 µM (inactive).

Question: And the GI50 [29]?
Answer: The GI50 was > 100 µM (inactive).

Question: What about the GI50 [30] of the same molecule?
Answer: The GI50 was > 100 µM (inactive).

Question: What about the GI50 [31] of the same molecule?
Answer: Its GI50 is > 100 µM (inactive).

Question: And the GI50 [32]?
Answer: The GI50 was > 100 µM (inactive).

Question: What about the GI50 [33] of the same molecule?
Answer: The GI50 was > 100 µM (inactive).

Question: What about the GI50 [34] of the same molecule?
Answer: The GI50 was > 100 µM (inactive).

Question: And the GI50 [35]?
Answer: The GI50 was > 100 µM (inactive).

Question: What about the GI50 [36] of the same molecule?
Answer: The GI50 was > 100 µM (inactive).

Question: What about the GI50 [37] of the same molecule?
Answer: Its GI50 is > 100 µM (inactive).

Question: What about the GI50 [38] of the same molecule?
Answer: Its GI50 is > 100 µM (inactive).

Question: And the GI50 [39]?
Answer: The GI50 was > 100 µM (inactive).

Question: What about the GI50 [40] of the same molecule?
Answer: Its GI50 is > 100 µM (inactive).

Question: What about the GI50 [41] of the same molecule?
Answer: Its GI50 is > 100 µM (inactive).

Question: What about the GI50 [42] of the same molecule?
Answer: The GI50 was > 100 µM (inactive).

Question: What about the GI50 [43] of the same molecule?
Answer: The GI50 was > 100 µM (inactive).

Question: What about the GI50 [44] of the same molecule?
Answer: The GI50 was > 100 µM (inactive).

Question: What about the GI50 [45] of the same molecule?
Answer: Its GI50 is > 100 µM (inactive).

Question: And the GI50 [46]?
Answer: Its GI50 is > 100 µM (inactive).

Question: And the GI50 [47]?
Answer: The GI50 was > 100 µM (inactive).

Question: And the GI50 [48]?
Answer: Its GI50 is > 100 µM (inactive).

Question: How did the GI50 [1] turn out when [O-][S+]1c2ccc(Cl)cc2CC(SSC2Cc3cc(Cl)ccc3[S+]([O-])c3ccccc32)c2ccccc21 (stereo not drawn) was run?
Answer: Its GI50 is > 100 µM (inactive).

Question: What about the GI50 [2] of the same molecule?
Answer: The GI50 was > 100 µM (inactive).

Question: What about the GI50 [3] of the same molecule?
Answer: Its GI50 is > 100 µM (inactive).

Question: And the GI50 [4]?
Answer: The GI50 was > 100 µM (inactive).

Question: And the GI50 [5]?
Answer: The GI50 was > 100 µM (inactive).

Question: And the GI50 [6]?
Answer: Its GI50 is > 100 µM (inactive).

Question: What about the GI50 [7] of the same molecule?
Answer: The GI50 was > 100 µM (inactive).

Question: What about the GI50 [8] of the same molecule?
Answer: The GI50 was > 100 µM (inactive).

Question: And the GI50 [10]?
Answer: Its GI50 is > 100 µM (inactive).

Question: And the GI50 [11]?
Answer: Its GI50 is > 100 µM (inactive).

Question: And the GI50 [49]?
Answer: The GI50 was > 100 µM (inactive).

Question: What about the GI50 [12] of the same molecule?
Answer: Its GI50 is > 100 µM (inactive).

Question: What about the GI50 [50] of the same molecule?
Answer: Its GI50 is > 100 µM (inactive).

Question: What about the GI50 [13] of the same molecule?
Answer: The GI50 was > 100 µM (inactive).

Question: And the GI50 [51]?
Answer: The GI50 was > 100 µM (inactive).

Question: And the GI50 [52]?
Answer: Its GI50 is > 100 µM (inactive).

Question: What about the GI50 [14] of the same molecule?
Answer: Its GI50 is > 100 µM (inactive).

Question: And the GI50 [53]?
Answer: The GI50 was > 100 µM (inactive).

Question: And the GI50 [15]?
Answer: The GI50 was > 100 µM (inactive).

Question: What about the GI50 [16] of the same molecule?
Answer: Its GI50 is > 100 µM (inactive).

Question: And the GI50 [17]?
Answer: Its GI50 is > 100 µM (inactive).

Question: What about the GI50 [18] of the same molecule?
Answer: The GI50 was > 100 µM (inactive).

Question: And the GI50 [19]?
Answer: The GI50 was > 100 µM (inactive).

Question: What about the GI50 [20] of the same molecule?
Answer: The GI50 was > 100 µM (inactive).

Question: What about the GI50 [54] of the same molecule?
Answer: The GI50 was > 100 µM (inactive).

Question: And the GI50 [21]?
Answer: Its GI50 is > 100 µM (inactive).

Question: And the GI50 [22]?
Answer: Its GI50 is > 100 µM (inactive).

Question: And the GI50 [23]?
Answer: Its GI50 is > 100 µM (inactive).

Question: And the GI50 [55]?
Answer: The GI50 was > 100 µM (inactive).

Question: And the GI50 [24]?
Answer: Its GI50 is > 100 µM (inactive).

Question: And the GI50 [25]?
Answer: Its GI50 is > 100 µM (inactive).

Question: And the GI50 [26]?
Answer: The GI50 was > 100 µM (inactive).

Question: And the GI50 [27]?
Answer: Its GI50 is > 100 µM (inactive).

Question: What about the GI50 [28] of the same molecule?
Answer: Its GI50 is > 100 µM (inactive).

Question: What about the GI50 [29] of the same molecule?
Answer: The GI50 was > 100 µM (inactive).

Question: What about the GI50 [30] of the same molecule?
Answer: The GI50 was > 100 µM (inactive).

Question: What about the GI50 [31] of the same molecule?
Answer: Its GI50 is > 100 µM (inactive).

Question: What about the GI50 [56] of the same molecule?
Answer: Its GI50 is > 100 µM (inactive).

Question: What about the GI50 [32] of the same molecule?
Answer: Its GI50 is > 100 µM (inactive).

Question: What about the GI50 [33] of the same molecule?
Answer: The GI50 was > 100 µM (inactive).

Question: And the GI50 [34]?
Answer: Its GI50 is > 100 µM (inactive).

Question: What about the GI50 [35] of the same molecule?
Answer: The GI50 was > 100 µM (inactive).

Question: What about the GI50 [36] of the same molecule?
Answer: The GI50 was > 100 µM (inactive).

Question: What about the GI50 [37] of the same molecule?
Answer: The GI50 was > 100 µM (inactive).

Question: And the GI50 [39]?
Answer: Its GI50 is > 100 µM (inactive).

Question: And the GI50 [40]?
Answer: Its GI50 is > 100 µM (inactive).

Question: What about the GI50 [41] of the same molecule?
Answer: Its GI50 is > 100 µM (inactive).

Question: And the GI50 [42]?
Answer: The GI50 was > 100 µM (inactive).

Question: And the GI50 [57]?
Answer: Its GI50 is > 100 µM (inactive).

Question: And the GI50 [43]?
Answer: Its GI50 is > 100 µM (inactive).

Question: And the GI50 [44]?
Answer: The GI50 was > 100 µM (inactive).

Question: And the GI50 [45]?
Answer: The GI50 was > 100 µM (inactive).

Question: And the GI50 [46]?
Answer: Its GI50 is > 100 µM (inactive).

Question: What about the GI50 [47] of the same molecule?
Answer: The GI50 was > 100 µM (inactive).

Question: What about the GI50 [48] of the same molecule?
Answer: Its GI50 is > 100 µM (inactive).
